Assay results reported in publication PMC10018608 (Signal Transduction and Targeted Therapy, 2023).
Where two headings read alike, the source gives them in different places.

How the values were obtained:
[1] = ICR Mice
[2] = tested on: SARS-CoV-2 Omicron BA.1 (B.1.1.529.1); experiment: In vitro antiviral screening, viral genome copies by RT-qPCR in VeroE6-TMPRSS2; format: cell-based; conditions: Omicron BA.1, VeroE6-TMPRSS2
in vivo [3] = conditions: male, ICR, mouse
in vivo [4] = conditions: male, cynomolgus monkey
MERS-CoV = experiment: microbe, parasite or virus in culture; format: cell-based; conditions: Middle East respiratory syndrome-related coronavirus, VeroE6/TMPRSS2, read-out: EC50 (plaque reduction)
CYP3A4 = target: T1, CYP3A4 (Homo sapiens, UniProt P08684); experiment: biochemical; format: in vitro ADME
T1 construct: Add 400 μL 0.2 mg/mL HLM; from tissue; host or cells: human liver microsomes (HLM)
Method: (§1) Preheat 0.1 M pH 7.4 K/Mg-buffer at 37 °C. The reference inhibitors for this assay are α-Naphthoflavone (1A2), Ticlopidine (2B6), Montelukast (2C8), Sulfaphenazole (2C9), Omeprazole (2C19), Quinidine (2D6), Ketoconazole (3A4). Test compound and reference inhibitors were dissolved in ACN. NADPH cofactor was dissolved in K/Mg-buffer. Each CYP450 isoform was prepared 2 mL substrate (1A2: Phenacetin, 2B6: Amfebutamone HCl, 2C8: Paclitaxel, 2C9: Diclofenac, 2C19: S-Mephenytoin, 2D6: Dextromethorphan, 3A4: Midazolam and Testosterone). Add 400 μL 0.2 mg/mL HLM and 2 μL of test compound set (serially diluted) to the assay wells. And then add 30 μL HLM-compound mixture and 15 μL substrate solution in the 96-well assay plate on ice. Then incubate the 96-well assay plate at 37 °C for 5 min. Add 15 µL of pre-warmed (37 °C) 8 mM NADPH solution to initiate the enzyme reaction. Incubate the assay plate at 37 °C for 5–45 min and quench the reaction. Then collect samples for LC/MS analysis.

CYP2B6 = target: T2, CYP2B6 (Homo sapiens, UniProt P20813); experiment: biochemical; format: in vitro ADME; conditions: CYP2B6 (Bupropion), HLM
T2 construct: Add 400 μL 0.2 mg/mL HLM; from tissue; host or cells: human liver microsomes (HLM)
Method: as §1

CYP2C9 = target: T3, CYP2C9 (Homo sapiens, UniProt P11712); experiment: biochemical; format: in vitro ADME; conditions: CYP2C9 (Diclofenac), HLM
T3 construct: Add 400 μL 0.2 mg/mL HLM; from tissue; host or cells: human liver microsomes (HLM)
Method: as §1

CYP2C8 = target: T4, CYP2C8 (Homo sapiens, UniProt P10632); experiment: biochemical; format: in vitro ADME; conditions: CYP2C8 (Paclitaxel), HLM
T4 construct: Add 400 μL 0.2 mg/mL HLM; from tissue; host or cells: human liver microsomes (HLM)
Method: as §1

CYP1A2 = target: T5, CYP1A2 (Homo sapiens, UniProt P05177); experiment: biochemical; format: in vitro ADME; conditions: CYP1A2 (Phenacetin), HLM
T5 construct: Add 400 μL 0.2 mg/mL HLM; from tissue; host or cells: human liver microsomes (HLM)
Method: as §1

CYP2C19 = target: T6, CYP2C19 (Homo sapiens, UniProt P33261); experiment: biochemical; format: in vitro ADME; conditions: CYP2C19 (S-Mephenytoin), HLM
T6 construct: Add 400 μL 0.2 mg/mL HLM; from tissue; host or cells: human liver microsomes (HLM)
Method: as §1

CYP2D6 = target: T7, CYP2D6 (Homo sapiens, UniProt P10635); experiment: biochemical; format: in vitro ADME; conditions: CYP2D6 (Dextromethorphan), HLM
T7 construct: Add 400 μL 0.2 mg/mL HLM; from tissue; host or cells: human liver microsomes (HLM)
Method: as §1

SARS-CoV-2 (B.1.1.7) = experiment: Plaque reduction assay in VeroE6-TMPRSS2; format: cell-based; conditions: Severe acute respiratory syndrome coronavirus 2
SARS-CoV-2 (B.1.351) = experiment: Plaque reduction assay in VeroE6-TMPRSS2; format: cell-based; conditions: Severe acute respiratory syndrome coronavirus 2
various human proteases = experiment: Mammalian proteases activity assay (text summary of the panel); format: biochemical; conditions: tested various human proteases
Method: (§2) The mammalian proteases activity assay was analyzed using the assay kit (Biovision, USA) in triplicate by following manufacturer’s manual.

hERG channel = hERG channel (Homo sapiens, UniProt Q12809); experiment: cell-based
in vitro [5] = format: in vitro ADME; conditions: human, microsomes, HLM 0.5 mg/mL, 1 μM
human plasma protein = experiment: in vitro; format: in vitro ADME; conditions: human plasma, 1 μM, equilibrium dialysis 5 h
in vitro [6] = format: in vitro ADME, human; conditions: human plasma, equilibrium dialysis; read-out: plasma unbound fraction
Human Cathepsin L = target: T8, Human Cathepsin L (Homo sapiens, UniProt P07711); experiment: Mammalian proteases activity assay; format: biochemical
T8 construct: purchased Biovision, USA
Method: as §2

Neutrophil Elastase = target: T9, Neutrophil Elastase (Homo sapiens, UniProt P08246); experiment: Mammalian proteases activity assay; format: biochemical
T9 construct: purchased Biovision, USA
Method: as §2

in vivo [7] = conditions: male, Sprague-Dawley, rat

T1 sequence (P08684 whole entry): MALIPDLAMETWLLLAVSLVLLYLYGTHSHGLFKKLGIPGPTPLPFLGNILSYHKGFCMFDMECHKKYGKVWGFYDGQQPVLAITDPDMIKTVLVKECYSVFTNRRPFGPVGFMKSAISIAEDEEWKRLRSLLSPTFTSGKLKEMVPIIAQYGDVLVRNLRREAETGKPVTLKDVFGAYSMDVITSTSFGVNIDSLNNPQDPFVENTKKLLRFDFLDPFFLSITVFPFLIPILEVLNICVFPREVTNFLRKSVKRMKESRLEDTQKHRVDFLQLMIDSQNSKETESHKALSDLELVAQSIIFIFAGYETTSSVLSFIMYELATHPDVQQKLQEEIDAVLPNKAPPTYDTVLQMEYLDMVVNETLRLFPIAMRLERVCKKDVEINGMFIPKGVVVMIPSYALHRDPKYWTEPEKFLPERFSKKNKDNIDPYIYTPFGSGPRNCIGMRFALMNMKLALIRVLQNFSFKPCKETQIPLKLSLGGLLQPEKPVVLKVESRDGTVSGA
T7 sequence (P10635 whole entry): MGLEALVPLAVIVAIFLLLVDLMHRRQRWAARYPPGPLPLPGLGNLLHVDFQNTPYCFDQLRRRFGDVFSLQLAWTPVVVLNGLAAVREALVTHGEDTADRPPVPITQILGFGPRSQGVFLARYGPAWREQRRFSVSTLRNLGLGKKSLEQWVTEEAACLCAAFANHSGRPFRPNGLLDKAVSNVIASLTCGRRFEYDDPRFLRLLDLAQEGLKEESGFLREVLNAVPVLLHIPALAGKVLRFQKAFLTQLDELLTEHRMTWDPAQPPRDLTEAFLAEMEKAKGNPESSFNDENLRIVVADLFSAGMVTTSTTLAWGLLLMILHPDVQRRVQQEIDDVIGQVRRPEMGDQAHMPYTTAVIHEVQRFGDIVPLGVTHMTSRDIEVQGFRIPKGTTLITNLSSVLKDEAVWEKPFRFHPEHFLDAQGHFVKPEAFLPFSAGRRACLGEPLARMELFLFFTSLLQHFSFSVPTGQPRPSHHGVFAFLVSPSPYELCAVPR
T2 sequence (P20813 whole entry): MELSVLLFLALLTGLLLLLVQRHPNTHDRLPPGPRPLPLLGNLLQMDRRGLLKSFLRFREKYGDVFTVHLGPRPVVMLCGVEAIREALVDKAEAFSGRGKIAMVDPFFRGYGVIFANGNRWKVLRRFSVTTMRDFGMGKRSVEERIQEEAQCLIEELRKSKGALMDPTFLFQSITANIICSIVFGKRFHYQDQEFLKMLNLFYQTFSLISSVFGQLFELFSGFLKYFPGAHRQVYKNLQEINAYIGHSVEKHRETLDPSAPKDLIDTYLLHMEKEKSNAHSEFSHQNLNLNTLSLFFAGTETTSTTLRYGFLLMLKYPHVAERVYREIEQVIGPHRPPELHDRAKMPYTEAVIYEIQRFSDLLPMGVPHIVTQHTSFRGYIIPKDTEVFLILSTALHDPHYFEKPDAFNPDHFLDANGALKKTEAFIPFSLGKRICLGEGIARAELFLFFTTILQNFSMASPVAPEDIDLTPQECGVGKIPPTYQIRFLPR
T8 sequence (P07711 114-333): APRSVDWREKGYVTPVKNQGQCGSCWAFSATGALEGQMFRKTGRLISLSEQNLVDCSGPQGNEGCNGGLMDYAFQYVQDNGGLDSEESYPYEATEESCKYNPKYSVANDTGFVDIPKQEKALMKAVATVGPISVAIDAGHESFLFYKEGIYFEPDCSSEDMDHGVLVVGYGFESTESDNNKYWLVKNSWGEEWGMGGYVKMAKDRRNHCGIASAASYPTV
T3 sequence (P11712 whole entry): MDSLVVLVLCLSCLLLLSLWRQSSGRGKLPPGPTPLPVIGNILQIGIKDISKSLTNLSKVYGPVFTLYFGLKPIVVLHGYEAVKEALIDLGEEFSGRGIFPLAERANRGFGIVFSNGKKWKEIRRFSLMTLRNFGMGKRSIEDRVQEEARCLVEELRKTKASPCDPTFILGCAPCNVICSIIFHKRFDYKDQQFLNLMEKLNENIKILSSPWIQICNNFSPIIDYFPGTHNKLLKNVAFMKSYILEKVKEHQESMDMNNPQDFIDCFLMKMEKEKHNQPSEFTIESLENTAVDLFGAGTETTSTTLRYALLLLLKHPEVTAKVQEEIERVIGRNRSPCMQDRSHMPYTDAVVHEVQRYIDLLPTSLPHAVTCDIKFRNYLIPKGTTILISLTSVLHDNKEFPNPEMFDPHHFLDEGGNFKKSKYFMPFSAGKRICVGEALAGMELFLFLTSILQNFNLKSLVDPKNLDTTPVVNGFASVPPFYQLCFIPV
T6 sequence (P33261 whole entry): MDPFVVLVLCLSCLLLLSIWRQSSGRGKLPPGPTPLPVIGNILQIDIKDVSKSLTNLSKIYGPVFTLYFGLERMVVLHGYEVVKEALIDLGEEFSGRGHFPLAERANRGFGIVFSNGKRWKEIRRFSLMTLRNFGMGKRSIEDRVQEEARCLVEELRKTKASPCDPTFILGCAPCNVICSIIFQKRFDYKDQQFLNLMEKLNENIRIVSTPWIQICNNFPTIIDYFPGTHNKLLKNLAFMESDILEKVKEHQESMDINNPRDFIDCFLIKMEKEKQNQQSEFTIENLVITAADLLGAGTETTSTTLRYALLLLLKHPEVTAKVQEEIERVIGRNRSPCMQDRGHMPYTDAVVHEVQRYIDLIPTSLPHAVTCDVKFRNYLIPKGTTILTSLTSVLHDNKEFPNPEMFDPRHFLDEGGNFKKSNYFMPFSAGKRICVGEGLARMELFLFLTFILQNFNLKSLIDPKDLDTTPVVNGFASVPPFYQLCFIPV
T9 sequence (P08246 30-267): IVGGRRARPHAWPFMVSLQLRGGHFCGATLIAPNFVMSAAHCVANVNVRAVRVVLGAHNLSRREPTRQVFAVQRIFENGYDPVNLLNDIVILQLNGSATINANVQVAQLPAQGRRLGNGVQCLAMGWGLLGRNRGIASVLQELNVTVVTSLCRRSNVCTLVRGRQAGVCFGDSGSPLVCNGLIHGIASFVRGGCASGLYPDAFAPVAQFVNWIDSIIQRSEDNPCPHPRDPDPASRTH
T4 sequence (P10632 whole entry): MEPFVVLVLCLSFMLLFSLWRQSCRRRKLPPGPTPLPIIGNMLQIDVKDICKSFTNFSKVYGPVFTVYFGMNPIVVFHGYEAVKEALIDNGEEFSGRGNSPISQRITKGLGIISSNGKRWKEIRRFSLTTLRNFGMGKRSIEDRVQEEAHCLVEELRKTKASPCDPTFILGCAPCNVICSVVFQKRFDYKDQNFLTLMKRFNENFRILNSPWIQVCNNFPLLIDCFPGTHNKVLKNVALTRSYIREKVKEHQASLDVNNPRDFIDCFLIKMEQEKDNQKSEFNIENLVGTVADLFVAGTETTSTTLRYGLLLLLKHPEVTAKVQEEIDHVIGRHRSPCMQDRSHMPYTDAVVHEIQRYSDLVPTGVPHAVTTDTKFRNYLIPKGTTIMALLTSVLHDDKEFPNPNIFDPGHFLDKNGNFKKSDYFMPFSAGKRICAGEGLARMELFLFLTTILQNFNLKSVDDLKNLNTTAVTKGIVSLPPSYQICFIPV
T5 sequence (P05177 whole entry): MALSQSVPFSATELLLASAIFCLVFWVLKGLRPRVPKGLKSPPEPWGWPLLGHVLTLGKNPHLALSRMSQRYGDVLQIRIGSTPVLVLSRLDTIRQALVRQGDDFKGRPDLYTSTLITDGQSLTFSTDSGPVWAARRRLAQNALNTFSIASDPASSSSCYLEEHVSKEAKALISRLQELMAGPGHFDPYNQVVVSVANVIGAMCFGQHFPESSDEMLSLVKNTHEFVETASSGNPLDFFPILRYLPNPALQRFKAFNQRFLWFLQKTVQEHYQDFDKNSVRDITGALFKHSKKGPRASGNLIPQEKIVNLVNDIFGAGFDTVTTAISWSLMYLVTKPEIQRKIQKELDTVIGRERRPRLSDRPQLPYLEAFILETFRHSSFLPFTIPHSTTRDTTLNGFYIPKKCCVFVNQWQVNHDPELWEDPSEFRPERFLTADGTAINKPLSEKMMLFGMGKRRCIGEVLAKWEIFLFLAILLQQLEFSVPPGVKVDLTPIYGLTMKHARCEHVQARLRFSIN

SMILES: COC[C@@H](NC(=O)C1CCCC(F)(F)C1)C(=O)N[C@H](Cc1ccccc1)C(=O)C(=O)NCc1nccs1 (stereo partly drawn) [SY110, N-((R)-1-(((R)-3,4-dioxo-1-phenyl-4-((thiazol-2-ylmethyl)amino)butan-2-yl)amino)-3-methoxy-1-oxopropan-2-yl)-3,3-difluorocyclohexane-1-carboxamide]
- MTRlast ([1]; i.v. (1 mg/kg)): 0.17 ± 0.03 h
- Vzobs ([1]; i.v. (1 mg/kg)): 4.27 ± 2.29 L/kg
- MTRlast ([1]; p.o. (150 mg/kg)): 3.62 ± 1.18 h
- antiviral activity among the six compounds tested [2]: most potent antiviral activity
- AUC(0-inf) (in vivo [3]; iv, 1 mg/kg): 87.1 ± 7.81 ng·h/mL
- AUC(0-t) (in vivo [3]; iv, 1 mg/kg): 85.9 ± 7.6 ng·h/mL
- Cmax (in vivo [3]; iv, 1 mg/kg): 285 ± 16.4 ng/mL
- Tmax (in vivo [3]; iv, 1 mg/kg): 0.08 h
- clearance (in vivo [3]; iv, 1 mg/kg): 192 ± 16.4 mL/min/kg
- half-life (in vivo [3]; iv, 1 mg/kg): 0.27 ± 0.17 h
- AUC(0-inf) (in vivo [3]; po, 150 mg/kg): 15700 ± 4420 ng·h/mL
- AUC(0-t) (in vivo [3]; po, 150 mg/kg): 15100 ± 5140 ng·h/mL
- Cmax (in vivo [3]; po, 150 mg/kg): 4080 ± 636 ng/mL
- Tmax (in vivo [3]; po, 150 mg/kg): 0.33 ± 0.14 h
- half-life (in vivo [3]; po, 150 mg/kg): 3.25 ± 1.03 h
- AUC(0-inf) (in vivo [4]; iv, 1 mg/kg): 506 ± 60.7 ng·h/mL
- AUC(0-t) (in vivo [4]; iv, 1 mg/kg): 501 ± 59.9 ng·h/mL
- Cmax (in vivo [4]; iv, 1 mg/kg): 567 ± 38.2 ng/mL
- Tmax (in vivo [4]; iv, 1 mg/kg): 0.08 h
- clearance (in vivo [4]; iv, 1 mg/kg): 33.3 mL/min/kg
- half-life (in vivo [4]; iv, 1 mg/kg): 0.73 ± 0.2 h
- AUC(0-t) (in vivo [4]; po, 10 mg/kg): 1220 ± 56.8 ng·h/mL
- Cmax (in vivo [4]; po, 10 mg/kg): 242 ± 54.2 ng/mL
- Tmax (in vivo [4]; po, 10 mg/kg): 2.33 ± 1.53 h
- bioavailability (in vivo [4]; po, 10 mg/kg): 24.4%
- half-life (in vivo [4]; po, 10 mg/kg): 5.57 ± 1.05 h
- EC50 (MERS-CoV): 6.27 µM
- IC50 (CYP3A4; CYP3A4 (Midazolam), HLM): > 30 µM
- IC50 (CYP3A4; CYP3A4 (Testosterone), HLM): > 30 µM
- IC50 (CYP3A4; CYP3A4, text, substrate not stated there): > 30 µM
- IC50 (CYP2B6): > 30 µM
- IC50 (CYP2C9): > 30 µM
- IC50 (CYP2C8): > 30 µM
- IC50 (CYP1A2): > 30 µM
- IC50 (CYP2C19): > 30 µM
- IC50 (CYP2D6): > 30 µM
- EC50 (SARS-CoV-2 (B.1.1.7)): 1.21 µM
- EC50 (SARS-CoV-2 (B.1.351)): 2.84 µM
- Results, acute toxicity study (mice, p.o., 1000 mg/kg, single dose): No mice died
- maximal tolerated single dose (text says rats): at least 1.0 g/kg
- IC50 (various human proteases): > 100 µM
- IC50 (hERG channel): > 30 µM
- remaining at 0 h (in vitro [5]; 0 min, Mean, read-out: Percent Remaining (%) 0 min): 100%
- remaining at 5 min (in vitro [5]; 5 min, Mean, read-out: Percent Remaining (%) 5 min): 80.7%
- remaining at […] (in vitro [5]; 15 min, Mean, read-out: Percent Remaining (%) 15 min): 65.4%
- remaining at 0.5 h (in vitro [5]; 30 min, Mean, read-out: Percent Remaining (%) 30 min): 48%
- remaining at 0.75 h (in vitro [5]; 45 min, Mean, read-out: Percent Remaining (%) 45 min): 37.2%
- remaining at 1 h (in vitro [5]; 60 min, Mean, read-out: Percent Remaining (%) 60 min): 29.8%
- CLint scaled (in vitro [5]; scaling factor 1254.2): 49.2 mL/min/kg
- Fraction of Bound (%) (human plasma protein): 69.9%
- fraction unbound (in vitro [6]): 0.301
- IC50 (Human Cathepsin L): > 100 µM
- IC50 (Neutrophil Elastase): > 100 µM
- AUC(0-inf) (in vivo [7]; iv, 1 mg/kg): 2320 ± 592 ng·h/mL
- AUC(0-t) (in vivo [7]; iv, 1 mg/kg): 2300 ± 587 ng·h/mL
- Cmax (in vivo [7]; iv, 1 mg/kg): 1740 ± 285 ng/mL
- Tmax (in vivo [7]; iv, 1 mg/kg): 0.08 h
- clearance (in vivo [7]; iv, 1 mg/kg): 7.47 ± 1.67 mL/min/kg
- half-life (in vivo [7]; iv, 1 mg/kg): 4.67 ± 0.19 h
- AUC(0-inf) (in vivo [7]; po, 10 mg/kg): 20200 ± 2600 ng·h/mL
- AUC(0-t) (in vivo [7]; po, 10 mg/kg): 19000 ng·h/mL
- Cmax (in vivo [7]; po, 10 mg/kg): 1430 ± 98.5 ng/mL
- Tmax (in vivo [7]; po, 10 mg/kg): 4 ± 2 h
- bioavailability (in vivo [7]; po, 10 mg/kg): 82.8%
- half-life (in vivo [7]; po, 10 mg/kg): 5.16 ± 2.94 h
